Data reported in the CheMixHub ionic liquid set.
Where “and” joins values, the source holds several entries; their conditions need not be identical. Identical values can stand only once.

Experiment: xn = mol fraction of the nth substance listed

O + CCCCCCCCCCCCCC[n+]1ccccc1.O=C([O-])C(O)c1ccccc1 + C[C@H](N)C(=O)O
101 kPa, x2 = 0, x3 = 0
Conditions	electrical conductivity [S/m]
293.15 K	0.00012
298.15 K	0.00015
303.15 K	0.00016
308.15 K	0.00017
313.15 K	0.00019

NC(N)=[NH2+].O=S(=O)([O-])C(F)(F)F + CN(CCO)CCO + O
Conditions	viscosity [mPa·s]
323.2 K, 101 kPa, x2 = 0.1179, x3 = 0.8792	3.5

CC(C)[C@H]1CC[C@H](C)C[C@@H]1O + CCCCCCCC[N+](CCCCCCCC)(CCCCCCCC)CCCCCCCC.[Br-] + [Cl-].[Cl-].[Co+2]
296.1 K, 101.3 kPa
Conditions	viscosity [mPa·s]
x2 = 0.2857, x3 = 0.1429	11900
x2 = 0.4, x3 = 0.2	22000
x2 = 0.4286, x3 = 0.1429	17800

CCC[N+]1(C)CCCC1.O=S(=O)([N-]S(=O)(=O)C(F)(F)F)C(F)(F)F + CCC[N+](C)(C)C.O=S(=O)([N-]S(=O)(=O)C(F)(F)F)C(F)(F)F
Conditions	viscosity [mPa·s]
298.15 K, 101.3 kPa, x2 = 0	61

O + CCCCCCCCCCCCCC[n+]1ccccc1.O=C([O-])C(O)c1ccccc1 + NCC(=O)NCC(=O)O
101 kPa, x2 = 0, x3 = 0
Conditions	electrical conductivity [S/m]
293.15 K	0.00012
298.15 K	0.00015
303.15 K	0.00016
308.15 K	0.00017
313.15 K	0.00019

CCCCCCCCO + CCCC[n+]1ccn(C)c1.O=S(=O)([N-]S(=O)(=O)C(F)(F)F)C(F)(F)F
100 kPa
Conditions	electrical conductivity, x2 = 0.03335 [S/m]	viscosity, x2 = 0 [mPa·s]	viscosity, x2 = 0.8499 [mPa·s]	viscosity, x2 = 0.8986 [mPa·s]
294.5 K	0.02	–	–	–
298 K	–	7.614	37.77	40.18

C1COCCO1 + CCCC[n+]1ccn(C)c1.F[B-](F)(F)F
Conditions	viscosity [mPa·s]
298.15 K, 100 kPa, x2 = 0	1.18

CC[n+]1ccn(C)c1.N#C[N-]C#N + CC[n+]1ccn(C)c1.F[B-](F)(F)F
298.1 K, 101 kPa
Conditions	viscosity [mPa·s]
x2 = 0.0448	17.2
x2 = 0.6254	27.9
x2 = 0.7856	31.4
x2 = 0.9447	34.7

CC1COC(=O)O1 (stereo unspecified) + CCCC[n+]1ccn(C)c1.F[B-](F)(F)F
100 kPa, frequency 0.003 MHz
Conditions	electrical conductivity [S/m]
296.9 K, x2 = 0.4	0.993
297 K, x2 = 0.6	0.747
297 K, x2 = 0.8	0.59
297.1 K, x2 = 0.2	1.26
297.1 K, x2 = 0.9	0.441
299.9 K, x2 = 0.2	1.3
299.9 K, x2 = 0.4	1.04
299.9 K, x2 = 0.8	0.63
299.9 K, x2 = 0.9	0.482
300 K, x2 = 0.6	0.794
302.5 K, x2 = 0.9	0.522
302.6 K, x2 = 0.2	1.32
302.6 K, x2 = 0.6	0.84
302.6 K, x2 = 0.8	0.675
302.7 K, x2 = 0.4	1.08
305.4 K, x2 = 0.8	0.72
305.4 K, x2 = 0.9	0.564
305.5 K, x2 = 0.2	1.34
305.5 K, x2 = 0.4	1.13
305.6 K, x2 = 0.6	0.882
308.2 K, x2 = 0.2	1.36
308.2 K, x2 = 0.4	1.17
308.2 K, x2 = 0.6	0.93
308.2 K, x2 = 0.8	0.759
308.2 K, x2 = 0.9	0.607
310.9 K, x2 = 0.2	1.4
311 K, x2 = 0.6	0.968
311 K, x2 = 0.8	0.803
311 K, x2 = 0.9	0.65
311.2 K, x2 = 0.4	1.21
313.6 K, x2 = 0.4	1.25
313.6 K, x2 = 0.6	1.01
313.6 K, x2 = 0.8	0.846
313.6 K, x2 = 0.9	0.691
313.9 K, x2 = 0.2	1.41
316.5 K, x2 = 0.6	1.05
316.5 K, x2 = 0.8	0.892
316.6 K, x2 = 0.9	0.74
316.7 K, x2 = 0.2	1.43
316.7 K, x2 = 0.4	1.29
319.2 K, x2 = 0.4	1.32
319.3 K, x2 = 0.6	1.1
319.3 K, x2 = 0.8	0.933
319.5 K, x2 = 0.9	0.786
319.7 K, x2 = 0.2	1.45
322 K, x2 = 0.8	0.979
322 K, x2 = 0.9	0.829
322.2 K, x2 = 0.2	1.47
322.2 K, x2 = 0.4	1.35
322.2 K, x2 = 0.6	1.15
324.8 K, x2 = 0.4	1.38
324.8 K, x2 = 0.8	1.02
324.8 K, x2 = 0.9	0.874
325 K, x2 = 0.6	1.18
325.1 K, x2 = 0.2	1.49
327.4 K, x2 = 0.4	1.41
327.6 K, x2 = 0.6	1.22
327.6 K, x2 = 0.8	1.06
327.6 K, x2 = 0.9	0.921
327.8 K, x2 = 0.2	1.51
330.4 K, x2 = 0.6	1.25
330.6 K, x2 = 0.2	1.53
330.6 K, x2 = 0.4	1.44
330.6 K, x2 = 0.8	1.11
330.6 K, x2 = 0.9	0.971
333.2 K, x2 = 0.4	1.46
333.2 K, x2 = 0.6	1.29
333.2 K, x2 = 0.8	1.15
333.3 K, x2 = 0.9	1.01
333.4 K, x2 = 0.2	1.56
335.9 K, x2 = 0.6	1.33
335.9 K, x2 = 0.8	1.19
335.9 K, x2 = 0.9	1.06
336.1 K, x2 = 0.2	1.55
336.1 K, x2 = 0.4	1.49
338.7 K, x2 = 0.9	1.1
338.8 K, x2 = 0.6	1.36
338.9 K, x2 = 0.8	1.24
339 K, x2 = 0.4	1.52
339.1 K, x2 = 0.2	1.58
341.5 K, x2 = 0.4	1.55
341.6 K, x2 = 0.8	1.27
341.6 K, x2 = 0.9	1.16
341.8 K, x2 = 0.2	1.59
341.8 K, x2 = 0.6	1.39
344.2 K, x2 = 0.4	1.59
344.2 K, x2 = 0.6	1.43
344.3 K, x2 = 0.9	1.19
344.4 K, x2 = 0.2	1.62
344.4 K, x2 = 0.8	1.32
347 K, x2 = 0.6	1.47
347.1 K, x2 = 0.8	1.36
347.1 K, x2 = 0.9	1.25
347.2 K, x2 = 0.2	1.64
347.2 K, x2 = 0.4	1.6
349.6 K, x2 = 0.2	1.66
349.9 K, x2 = 0.9	1.3
350 K, x2 = 0.4	1.62
350 K, x2 = 0.6	1.5
350 K, x2 = 0.8	1.4

viscosity, 100 kPa
Conditions	x2 = 0.15	x2 = 0.2	x2 = 0.4	x2 = 0.6	x2 = 0.8	x2 = 0.9
298.1 K	–	6.8 mPa·s and 6.5 mPa·s	14.8 mPa·s and 14.4 mPa·s	32.4 mPa·s and 32.5 mPa·s	45.9 mPa·s and 46.1 mPa·s	55.6 mPa·s and 55.7 mPa·s
298.15 K	5.2 mPa·s	6.9 mPa·s	–	–	–	–
303 K	–	5.6 mPa·s	11.5 mPa·s	22.4 mPa·s	33.1 mPa·s	45.7 mPa·s
308.1 K	–	5.1 mPa·s	10.1 mPa·s	18.8 mPa·s	25.8 mPa·s	36.5 mPa·s
313 K	–	4.3 mPa·s	8.6 mPa·s	15.7 mPa·s	21.6 mPa·s	31 mPa·s
318.1 K	–	3.8 mPa·s	7.6 mPa·s	12.6 mPa·s	18.5 mPa·s	25.4 mPa·s
323 K	–	3 mPa·s	6.5 mPa·s	10.6 mPa·s	16 mPa·s	22.1 mPa·s
328.1 K	–	2.6 mPa·s	5.8 mPa·s	9.3 mPa·s	14.2 mPa·s	19.7 mPa·s
333 K	–	2.4 mPa·s	5.4 mPa·s	8.2 mPa·s	12.4 mPa·s	17.2 mPa·s
338.1 K	–	2.1 mPa·s	4.9 mPa·s	7.2 mPa·s	10.6 mPa·s	15.9 mPa·s
343 K	–	2.1 mPa·s	4.4 mPa·s	6.1 mPa·s	9.5 mPa·s	14.3 mPa·s
348.1 K	–	2.1 mPa·s	3.9 mPa·s	5.6 mPa·s	8.5 mPa·s	13 mPa·s
